Assay results as given in ChEMBL document CHEMBL5724914, “Linking interpersonal differences in gut microbiota composition and drug biotransformation activity” (2024).

What was measured:
[1] = (§1) The drug is tested on Z-019 corresponding to rat gut metagenome with ENA study accession number: PRJEB37062 and ENA sample accession number: ERS12561818 for biotransformation under anaerobic condition. The drug concentrations were measured over 9 timepoints collected between 0 and 24 hours of incubation by liquid-chromatography-coupled mass spectrometry (LC–MS); conditions: 2 µM
[2] = as §1, with “on Z-011” for “on Z-019”, “to mouse” for “to rat”, “number: ERS12561811” for “number: ERS12561818”; conditions: 2 µM
[3] = as §1, with “Z-007” for “Z-019”, “ERS12561807” for “ERS12561818”; conditions: 2 µM
[4] = as §1, with “on Z-006” for “on Z-019”, “to mouse” for “to rat”, “number: ERS12561806” for “number: ERS12561818”; conditions: 2 µM
[5] = as §1, with “Z-005” for “Z-019”, “to” for “to rat gut”, “ERS12561805” for “ERS12561818”; conditions: 2 µM
[6] = as §1, with “on Z-003” for “on Z-019”, “to pig” for “to rat”, “number: ERS12561803” for “number: ERS12561818”; conditions: 2 µM
[7] = as §1, with “on WLS-086” for “on Z-019”, “to human” for “to rat”, “number: ERS12561752” for “number: ERS12561818”; conditions: 2 µM
[8] = as §1, with “on WLS-077” for “on Z-019”, “to human” for “to rat”, “number: ERS12561750” for “number: ERS12561818”; conditions: 2 µM
[9] = as §1, with “on WLS-010” for “on Z-019”, “to human” for “to rat”, “number: ERS12561743” for “number: ERS12561818”; conditions: 2 µM
[10] = human gut metagenome, 24 h, 2 µM
[11] = human gut metagenome, 24 h, 2 µM; remark: listed apart in the source
[12] = human gut metagenome, 24 h, 2 µM; remark: listed apart in the source
[13] = human gut metagenome, 24 h, 2 µM; remark: listed apart in the source
[14] = human gut metagenome, 24 h, 2 µM; remark: listed apart in the source
[15] = human gut metagenome, 24 h, 2 µM; remark: listed apart in the source
[16] = human gut metagenome, 24 h, 2 µM; remark: listed apart in the source
[17] = human gut metagenome, 24 h, 2 µM; remark: listed apart in the source
[18] = human gut metagenome, 24 h, 2 µM; remark: listed apart in the source
[19] = human gut metagenome, 24 h, 2 µM; remark: listed apart in the source
[20] = human gut metagenome, 24 h, 2 µM; remark: listed apart in the source
Further: call rule not given here.

SMILES	Bacterial Biotransformation [1]	Bacterial Biotransformation [2]	Bacterial Biotransformation [3]	Bacterial Biotransformation [4]	Bacterial Biotransformation [5]	Bacterial Biotransformation [6]	Bacterial Biotransformation [7]	Bacterial Biotransformation [8]	Bacterial Biotransformation [9]	Bacterial Biotransformation [10]	Bacterial Biotransformation [11]	Bacterial Biotransformation [12]	Bacterial Biotransformation [13]	Bacterial Biotransformation [14]	Bacterial Biotransformation [15]	Bacterial Biotransformation [16]	Bacterial Biotransformation [17]	Bacterial Biotransformation [18]	Bacterial Biotransformation [19]	Bacterial Biotransformation [20]
Cc1nc2n(c(=O)c1CCN1CCC(c3noc4cc(F)ccc34)CC1)CCCC2 [RISPERIDONE]	Compound NOT metabolized	Compound metabolized	Compound metabolized	Compound metabolized	Compound metabolized	Compound metabolized	Compound metabolized	Compound metabolized	Compound metabolized	Compound metabolized	Compound metabolized	Compound metabolized	Compound metabolized	Compound metabolized	Compound metabolized	Compound metabolized	Compound metabolized	Compound metabolized	Compound metabolized	Compound NOT metabolized
CCCc1nn(C)c2c(=O)[nH]c(-c3cc(S(=O)(=O)N4CCN(C)CC4)ccc3OCC)nc12.O=C(O)CC(O)(CC(=O)O)C(=O)O [SILDENAFIL CITRATE]	Compound NOT metabolized	Compound NOT metabolized	Compound NOT metabolized	Compound NOT metabolized	Compound NOT metabolized	Compound NOT metabolized	Compound metabolized	Compound NOT metabolized	Compound NOT metabolized	Compound metabolized	Compound metabolized	Compound NOT metabolized	Compound NOT metabolized	Compound NOT metabolized	Compound NOT metabolized	Compound NOT metabolized	Compound NOT metabolized	Compound NOT metabolized	Compound NOT metabolized	Compound NOT metabolized
CN1C(C(=O)Nc2ccccn2)=C(O)c2sccc2S1(=O)=O [TENOXICAM]	Compound NOT metabolized	Compound NOT metabolized	Compound NOT metabolized	Compound NOT metabolized	Compound NOT metabolized	Compound NOT metabolized	Compound NOT metabolized	Compound NOT metabolized	Compound NOT metabolized	Compound NOT metabolized	Compound NOT metabolized	Compound NOT metabolized	Compound NOT metabolized	Compound NOT metabolized	Compound NOT metabolized	Compound NOT metabolized	Compound NOT metabolized	Compound NOT metabolized	Compound metabolized	Compound NOT metabolized
O=c1n(CCCN2CCN(c3cccc(Cl)c3)CC2)nc2ccccn12 [TRAZODONE]	Compound NOT metabolized	Compound NOT metabolized	Compound NOT metabolized	Compound NOT metabolized	Compound NOT metabolized	Compound metabolized	Compound metabolized	Compound NOT metabolized	Compound NOT metabolized	Compound NOT metabolized	Compound metabolized	Compound metabolized	Compound metabolized	Compound metabolized	Compound NOT metabolized	Compound NOT metabolized	Compound metabolized	Compound NOT metabolized	Compound NOT metabolized	Compound NOT metabolized
